The target in this experiment is Lysophosphatidic acid receptor 1 (Homo sapiens, UniProt Q92633). The experiment is described as follows: In Vitro Assay. The procedure:
CHO-hLPA1 cell lines are cultured in a humidified incubator at 5% CO2 in DMEM/F-12 (1:1) MIXTURE with 2 mM Glutamax, supplemented with 10% of Foetal Bovine Serum, 1 mM Sodium Pyruvate, 11 mM Hepes and 1× Penicillin/Streptomycin. […] Serial dilutions (1:3 or 1:4, 11 points CRC) of compounds are performed in 100% DMSO at 200× the final concentration. […] The final concentration of DMSO in the assay will be 0.5% in each well. Medium is removed by aspiration and cells are then incubated with 30 μl of a loading solution containing 5 μM of the cytoplasmic Ca2+ indicator Cal-520 AM in Assay Buffer containing 2.5 mM probenecid for 30 min at 37° C. incubator (cell loading). The loaded cell plates are transferred into the FLIPR instrument and calcium responses are monitored during the on-line addition protocols. For testing of compounds, after the cell loading, 10 μl/well of 4× antagonists' solution was added onto the cells. After 30 min pre-incubation (at 37° C.), 10 μl/well of 5× concentrated LPA EC80 was added and Ca2+ mobilization responses was followed during the on-line addition protocol. Intracellular peak fluorescence values subtracted by baseline fluorescence are exported and analysed to determine IC50 values, respectively.

Lysophosphatidic acid receptor 1, sequence (Q92633 whole entry): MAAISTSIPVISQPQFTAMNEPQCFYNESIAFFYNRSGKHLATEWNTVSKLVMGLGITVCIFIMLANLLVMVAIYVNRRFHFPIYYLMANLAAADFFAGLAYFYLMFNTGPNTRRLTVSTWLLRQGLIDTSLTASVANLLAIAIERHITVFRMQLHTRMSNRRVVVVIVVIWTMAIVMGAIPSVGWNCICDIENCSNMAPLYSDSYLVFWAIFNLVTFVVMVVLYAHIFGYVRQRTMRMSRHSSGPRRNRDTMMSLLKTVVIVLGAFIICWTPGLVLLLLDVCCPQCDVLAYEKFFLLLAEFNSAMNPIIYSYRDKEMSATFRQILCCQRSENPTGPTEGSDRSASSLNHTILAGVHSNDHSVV

As to `Cc1ccccc1[C@@H](C)OC(=O)Nc1c(C)noc1-c1ccc(NC(=O)[C@H]2CCCC[C@@H]2C(=O)O)c(C)n1` [US12454530, Example 32], the IC50 was below 50 nM.

Source of the values: BindingDB's records for patent US12454530 (Chiesi Farmaceutici, 2025).
